Laboratory results as given in US20130230460A1, “USE OF CYANINE DYES FOR THE DETECTION OF TAU FOR DIAGNOSIS OF EARLY-STAGE TAUOPATHIES” (GE HEALTHCARE LIMITED, priority 2010, published 2013).

Columns and labels:
insoluble tau aggregates = details: J Med Chem, 2009, 52, 3539; cited from earlier work
tau aggregates (Tau-412) = biological target: T1, tau aggregates (Tau-412) (Homo sapiens, UniProt P10636); experiment: In vitro binding assay with aggregated tau (fluorescence); details: for Kd: aggregated tau 10 μg/sample, 1 h at RT, triplicate; for Selectivity Tau: Aβ1-40: ratio of Kd Aβ1-40 to Kd tau
T1 construct: purchased Stratech
Protocol: Tau protein (Tau-412 with 2 nucleotide-binding motifs and 4 repeat binding regions, 42.9 kDa, 1 mg/ml, Stratech) was incubated in the presence of heparin (0.1 mg/ml) for 72 h at 37° C. with continuous shaking to generate tau aggregates.
(§1) The two test compounds 18 (see Example 6) and 20 (see Example 5), were dissolved and serially diluted in DMSO. Samples with aggregated tau and Aβ1-40 (10 μg/sample) were incubated with a serial dilution of each test compound (concentration range 1 nM-100 μM) in 96-well plates for 1 h at RT. Following incubation, samples were transferred to spin column plates (Thermo Fisher) and then centrifugated for 2 min at 1,500×g to remove free compound from the samples. Finally, the samples were transferred to black 96-well plates, and the fluorescence intensity measured at […] using a Tecan plate reader. All experiments were performed in triplicate. Kd values for each compound was calculated by fitting the data to a non-linear binding curve using Prism (GraphPad).

Aβ1-40 aggregates = biological target: T2, Aβ1-40 aggregates (Homo sapiens, UniProt P05067); experiment: In vitro binding assay with aggregated Aβ1-40 (fluorescence); details: aggregated Aβ1-40 10 μg/sample, 1 h at RT, triplicate
T2 construct: Aβ1-40 protein (4.3 kDa, 1 mg/ml, Invitrogen); purchased Invitrogen
Protocol: as §1, with “Aβ1-40 protein (4.3 kDa, 1 mg/ml, Invitrogen) was incubated at room temperature (RT) for 72 h with continuous shaking to generate Aβ1-40 aggregates. The two” for “The two”

T1 sequence (P10636 1-412 isoform P10636-7): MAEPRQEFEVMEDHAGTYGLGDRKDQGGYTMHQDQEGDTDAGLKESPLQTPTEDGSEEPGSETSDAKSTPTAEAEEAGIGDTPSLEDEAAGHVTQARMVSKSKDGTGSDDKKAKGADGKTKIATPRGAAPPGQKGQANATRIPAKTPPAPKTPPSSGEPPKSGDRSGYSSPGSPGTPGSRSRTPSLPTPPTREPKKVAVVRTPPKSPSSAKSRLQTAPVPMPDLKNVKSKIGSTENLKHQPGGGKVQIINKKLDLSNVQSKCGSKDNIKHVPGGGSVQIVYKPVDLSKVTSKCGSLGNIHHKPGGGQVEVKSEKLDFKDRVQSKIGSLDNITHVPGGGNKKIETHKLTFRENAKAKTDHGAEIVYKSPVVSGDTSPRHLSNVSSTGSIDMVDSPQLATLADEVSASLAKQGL
T2 sequence (P05067 672-711 limits assumed): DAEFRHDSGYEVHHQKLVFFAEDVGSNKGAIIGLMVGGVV

For `CCC(/C=C1\Sc2ccc(OC)cc2N1CCO)=C\c1sc2ccc(OC)cc2[n+]1CCO` [Compound N744], the “Tau aggregation inhibition (in words)” value (insoluble tau aggregates) is given as “potent tau aggregation inhibitors”.

With `COc1ccc2c(c1)N(CCF)/C(=C/C(C)=C/c1sc3ccc(OC)cc3[n+]1CCF)S2` [Compound 18, 3-(2-Fluoroethyl)-2-((1E,3Z)-3-(3-(2-fluoroethyl)-5-methoxybenzo[d]thiazol-2(3H)-ylidene)-2-methylprop-1-en-1-yl)-5-methoxybenzo[d]thiazol-3-ium] the “Selectivity for aggregated tau compared to Aβ1-40 aggregates (in words)” value (tau aggregates (Tau-412)) was “highly selective”, the Kd (tau aggregates (Tau-412)) was 0.00088 ± 0.0009 µM and the “Selectivity Tau: Aβ1-40” value (tau aggregates (Tau-412)) was 33,863. It also gave a Kd (Aβ1-40 aggregates) of 29.8 ± 21.3 µM.

In the case of `COc1ccc2c(c1)N(CCO)/C(=C/C(C)=C/c1sc3ccc(OC)cc3[n+]1CCF)S2` [Compound 20, 3-(2-Fluoroethyl)-2-((1E,3Z)-3-(3-(2-hydroxyethyl)-5-methoxybenzo[d]thiazol-2(3H)-ylidene)-2-methylprop-1-en-1-yl)-5-methoxybenzo[d]thiazol-3-ium], the “Selectivity for aggregated tau compared to Aβ1-40 aggregates (in words)” value (tau aggregates (Tau-412)) is reported as “highly selective”, the Kd (tau aggregates (Tau-412)) is reported as 0.00075 ± 0.00059 µM and the “Selectivity Tau: Aβ1-40” value (tau aggregates (Tau-412)) is reported as 20,800. It also gave a Kd (Aβ1-40 aggregates) of 15.6 ± 8.1 µM.
